Data from US9845327B2, “Treatment of proteinopathies” (THE GENERAL HOSPITAL CORPORATION, priority 2011, dated 2017).

How the values were obtained:
GCase polypeptide = target: T1, GCase polypeptide (Homo sapiens, UniProt P04062); assay: GCase polypeptide levels and post-ER forms by western blot in human iPS dopamine neurons; assay type: cell-based; conditions: human midbrain iPS dopamine neurons
T1 construct: endogenous in cells; host or cells: human iPS-derived midbrain dopamine neurons (healthy control; PD patient with SNCA triplication, Coriell ND27760)
T1 sequence (P04062 40-536): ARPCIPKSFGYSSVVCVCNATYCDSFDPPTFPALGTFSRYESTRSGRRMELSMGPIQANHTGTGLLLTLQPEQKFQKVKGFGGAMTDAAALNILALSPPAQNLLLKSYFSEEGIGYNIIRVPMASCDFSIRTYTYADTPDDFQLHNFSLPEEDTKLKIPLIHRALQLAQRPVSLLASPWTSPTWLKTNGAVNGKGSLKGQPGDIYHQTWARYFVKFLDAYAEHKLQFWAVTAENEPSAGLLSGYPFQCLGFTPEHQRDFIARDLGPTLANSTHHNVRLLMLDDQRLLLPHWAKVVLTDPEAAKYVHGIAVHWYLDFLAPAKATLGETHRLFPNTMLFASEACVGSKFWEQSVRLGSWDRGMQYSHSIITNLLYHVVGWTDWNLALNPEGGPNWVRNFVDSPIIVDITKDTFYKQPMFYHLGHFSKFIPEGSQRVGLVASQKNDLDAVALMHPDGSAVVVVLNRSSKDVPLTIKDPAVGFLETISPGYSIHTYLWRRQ
Procedure: In this Example, human dopamine neurons generated from iPS cells of an unaffected control were treated with a pharmacological chaperone activator of GCase polypeptide, isofagomine (IFG). […] Treatment of wild-type neurons with 100 μM IFG for 5 days followed by 1 day wash-out increased the levels of GCase polypeptide (FIGS. 15A and 15B). This increase was likely due to the fact that wild-type GCase polypeptide was occasionally misfolded in the ER and degraded (about 30% of the total made in the ER), and IFG appeared to also stabilize the wild-type misfolded forms.
(§1) It was also shown in this Example that treatment with the GCase polypeptide activator increased the levels of total GCase protein and increased the post-ER forms, indicating enhancement of flux to the lysosome (FIG. 19B).
In this Example, the effect of combining the GCase polypeptide pharmacological chaperone IFG with the antioxidant n-acetyl-cysteine (NAC) on GCase polypeptide maturation in PD iPS neurons was tested. Neurons were treated with either IFG, NAC, or IFG and NAC together, and GCase polypeptide maturation was analyzed by western blot.
(§2) Most materials for SDS-PAGE were obtained from Invitrogen (NuPAGE system). Protein lysates were boiled in sample buffer (20 mM Tris, 1% (v/v) glycerol, 180 mM β-mercaptoethanol, 0.003% (w/v) bromophenol blue, 2% (w/v) SDS, pH 6.8), resolved on 4%-12% Bis-Tris polyacrylamide precast gels in a MOPS-SDS running buffer, or 4%-12% Tris-Glycine gels. 10% Tris-Glycine gels were utilized for some GCase polypeptide western blot's (FIGS. 13B, 13D, and 13E, and FIGS. 14C and 14F). […] Blots were blocked in Odyssey blocking buffer (Li-Cor biosciences) containing 0.05% Tween, or 5% non-fat dry milk in TBS-T 0.2%, followed by incubation with primary antibodies (see above for dilutions), and detected with anti-mouse or -rabbit IgG conjugated to IRDye 680 or 800 (1:10,000, Li-Cor biosciences). […] Any nonspecific bands detected were not included in densitometric analyses. […]

α-synuclein = α-synuclein levels by western blot in human midbrain iPS dopamine neurons; assay type: cell-based
Source text: In this Example, it was investigated whether enhancement of lysosomal enzyme trafficking through stimulation of the secretory pathway would result in increased lysosomal function and reduction of α-synuclein. Therefore, in this Example the small GTPase Rab1a polypeptide was overexpressed by lentiviral infection in iPS neurons to stimulate enzyme trafficking. Rab1a polypeptide has been established to function specifically at the ER-Golgi step of the secretory pathway (Duvernay et al., Cell Signal 17: 1457, 2005). The effect of Rab1a polypeptide was determined in human iPS dopamine neurons derived from reprogrammed fibroblasts of a PD patient (Coriell line ND27760). These cells harbor a triplication mutation in the genomic region containing SNCA which encodes for α-synuclein, leading to overexpression of the protein and lysosomal trafficking deficits. […] Further in this Example, it was determined if Rab1a polypeptide enhances lysosomal function by monitoring cathepsin B activity.
as §1, §2

[1] = target: T2, recombinant human α-synuclein (Homo sapiens, UniProt P37840); assay: In vitro α-synuclein fibril (amyloid) formation with lipid dispersions, thioflavin T fluorescence
T2 construct: made in house; host or cells: E. coli BL21 CodonPlus (DE3)-RIL
Procedure: In this Example, lipid dispersions made of mixtures of purified GlcCer and brain phosphatidylcholines (PCs) were incubated with α-synuclein at physiological conditions (pH 7.4, 37° C.). Electron microscopy (EM) analysis indicated the formation of tubules consisting of polymerized GlcCer (FIGS. 7G-7I), similar to those previously observed in Gaucher cells in patients and mouse models (Lee, PNAS 61: 484, 1968).
However, increasing the amount of GlcCer to 75% while keeping the total lipid amount constant (PC25/GlcCer75) altered the kinetic profile of α-synuclein fibril formation by delaying the formation of insoluble thioT-positive α-synuclein fibrils, extending the lag time from 2 to 16 hr (FIG. 7A).
The fibril assembly phase PC25/GlcCer75-containing reactions occurred between 16 and 24 hr, compared to control reactions where the assembly occurred between 2 and 24 hr. […] The aggregated species formed at the end stage of the fibril-forming reaction, after assembly was completed and equilibrium was reached (at 28 hr) were further analyzed. […]
α-synuclein was expressed in E. coli and purified by boiling followed by HPLC as described previously (Mazzulli et al 2007). […] Fluorescence (ex=430 nm, em=510, 0.1 s) was determined in a Wallac Victor^2 plate reader (Perkin Elmer) in black FluorNunc Maxisorp 96 well plates (Nunc, #475515). […]

[2] = target: T2, recombinant human α-synuclein; assay: In vitro soluble α-synuclein oligomers and sedimentation with lipids (SEC/SDS-PAGE, ANS, 100,000 x g centrifugation)
Source text: Therefore, in this Example it was hypothesized that the delay in fibril formation observed in vitro resulted from a kinetic stabilization of a soluble oligomeric intermediate species. To test this, the nature of the species that form during the lag phase (between 1 and 16 hr) of PC25/GlcCer75-containing reactions were characterized by analytic biochemical methods. Soluble portions of the reaction mixtures were obtained by centrifugation at 100,000×g and analyzed at 1 and 5 hr after the addition of lipids by SEC/SDS-PAGE. […] Further, detected were increased amounts of soluble SDS and heat-stable dimers (36 kDa), trimers (54 kDa), and higher oligomeric species eluting as 36-27 Å-sized particles in PC25/GlcCer75-containing reactions compared to controls (FIG. 7B). […] Syn505 also detected α-synuclein directly on GlcCer tubular structures (FIG. 7G, i and ii) but not on GlcCer-alone reactions (FIG. 7I), indicating an association of misfolded α-synuclein with GlcCer. α-synuclein-GlcCer reactions were further analyzed by 8-anilino-1-napthalene sulfonate (ANS) binding, a fluorescent dye used to detect aggregation-prone conformational intermediates (Stryer, 1965). […]
Oligomers were also detected by 8-anilino-1-napthalene sulfonate (ANS) (Acros #401220050). […]

primary cortical neurons = assay: Proteolysis of long-lived proteins by radioactive pulse-chase in primary cortical neurons; assay type: cell-based, mouse; conditions: added to GCase polypeptide KD
Procedure: In this Example, a test was conducted to determine whether GCase polypeptide KD affects a lysosomal degradation pathway. In this test, neurons were treated with the well-established lysosomal inhibitors ammonium chloride (NH4Cl) and leupeptin.
Proteolysis of long-lived proteins was determined by radioactive pulse-chase using ^3H-leucine. This procedure was performed as described previously (Kaushik et al. Methods Enzymol. 452: 297, 2009). Briefly, cortical cells were grown in 24 well clusters seeded at 33000 cells/well and infected at moi 3 with scrb or GCase polypeptide shRNA expressing lentiviral vectors. On dpi 4, ^3H-leucine (PerkinElmer, # NET460A001 MC, final 5 μCi/ml) was added in standard neurobasal medium containing B27 for 2 days to trace label proteins. […] Samples were centrifuged at 20,000×g for 20 min, 4° C., and the radioactivity was measured in 5 ml of scintillation cocktail using a Beckman LS 1701 liquid scintillation counter (Beckman Instruments). Precipitated protein pellets were extracted in 200 μl of Na deoxycholate, 0.1 M NaOH, and radioactivity was determined. Percent proteolysis was calculated as described in detail elsewhere (Kaushik et al. Methods Enzymol. 452: 297, 2009). […]

Hela cells = assay: Lysosomal proteolysis by radioactive pulse-chase in transfected Hela cells; assay type: cell-based
Procedure: Further in this Example, it was assessed whether GCase polypeptide overexpression had the ability to directly enhance lysosomal proteolysis in a non-neuronal cell line. Hela cells were transfected with a myc-tagged GCase polypeptide expression construct and lysosomal proteolysis was assessed by radioactive pulse-chase (FIG. 17A). […] This effect was also confirmed through a different assay, by measuring the effect of GCase polypeptide overexpression on the activity of the lysosomal protease cathepsin B. A cell-permeable fluorescent-tagged cathepsin B substrate (MAGIC RED cathepsin detection kit, Immunochemistry Technologies) was added to transfected Hela cells, and degradation of this substrate was determined in living cells after substrate wash-out.

C#Cc1ccc(NC(=O)c2cnn3c(C)cc(C)nc23)cc1 [NCGC00188758]
levels of total GCase protein (GCase polypeptide): increased | post-ER forms of GCase (GCase polypeptide): increased | α-synuclein protein levels (α-synuclein; neurons from a PD patient with triplication of the SNCA genomic region): dose-dependent decrease | α-synuclein protein levels (α-synuclein; neurons from healthy unaffected controls): dose-dependent decrease

Glucosyl (β) Ceramide [GlcCer]
maximal thioT signal at the end stages, fold higher compared to control reactions ([1]; pH 5.0): 2- to 3 fold | α-synuclein fibril formation ([1]; physiological conditions, pH 7.4, 37° C.): no effect | amount of pelletable α-synuclein protein (100,000×g sedimentation) ([2]; pH 5.0, 28 hr): no effect

Cl.N [ammonium chloride]
proteolysis of long-lived proteins in GCase polypeptide shRNA-treated cells (primary cortical neurons): did not additively inhibit | effect of lysosomal inhibitors on the proteolysis increase by GCase polypeptide overexpression (Hela cells): completely reversed

monosialotetrahexosylganglioside [ganglioside GM1]
soluble α-synuclein oligomers compared to α-synuclein alone ([2]; pH 5.0, 15 hr incubation, 10:1 lipid:protein ratio): dramatic stabilization and elevation
